Patent US12187717B2, “Compound and use thereof in treating autoimmune diseases” (PARENCHYMA BIOTECH INC., priority 2022, dated 2025)

How the values were obtained:
[1] = tested on: IL-6; assay: IL-6 production of A549 epithelial cells by IL-1β stimulation; assay type: cell-based, Human; conditions: A549, 5 μM, 48 hours then IL-1β 24 hours, vs control
Protocol: In order to assess the inhibitory effects of production of IL-6 by the compounds of the present invention prepared as above, an IL-6 production test of epithelial cells by stimulation of IL-1β was performed.
After recovering A549 cells under culture in DMEM-fetal bovine serum (FBS) 10% medium and confirming that the survival rate is 97% or more through trypan blue staining, the recovered product was centrifuged at a speed of 1200 rpm for 5 minutes at room temperature, and the cells were prepared by resuspending them in DMEM-10% fetal bovine serum medium at 1×10^6 cells/3 ml. Thereafter, the cells were dispensed by 3 ml onto a 60 mm plate, and each dish was treated with 50 μl of Compounds 6, 9, 21, 32 and 39 at a concentration of 5 μM diluted in DMEM medium, and then cultured in a cell incubator (5% CO2 incubator) for 48 hours. Then, the cells were treated with 50 μl of human recombinant IL-1β at a concentration of 12.5 ng/ml diluted in DMEM medium, followed by culturing the same in a cell incubator (5% CO2 incubator) for 24 hours. As a control, 50 μl of 0.05% dimethylsulfoxide (DMSO)/DMEM medium was used for treatment.
The cultured cells were recovered to prepare an mRNA sample. […] From the separated RNA, cDNA was synthesized by reverse transcription, and the expression of CYP1A1 was confirmed through a real-time polymerase chain reaction (PCR) using iQ SYBR-Green Supermix (Bio-rad) in a CFX96 (Bio-rad) detection system. […] Herein, one (1) fold was set using the control.
The real-time polymerase chain reaction was performed under the conditions of 45 cycles at an annealing temperature of 58° C., wherein the following primer sequences were used.

[2] = target: CYP2D6 (Homo sapiens, UniProt P10635); conditions: 2 days, 10 μM
[3] = tested on: graft-versus-host disease; assay: Graft-versus-host disease model (B6->BDF1); assay type: in vivo, BDF1 mice; conditions: 10 mg/kg oral daily, 3rd to 14th days
Protocol: The spleen of C57BL/6 mice (8 to 12 weeks old, female, 18±3 g) was excised, pulverized by adding RPMI medium, and then passed through a 40 μm cell strainer (BD Falcon), thereby obtaining a single cell suspension. The single cell suspension was centrifuged (1200 rpm, 5 minutes), and after discarding the supematant, 1 ml of ACK (ammonium chloride/potassium bicarbonate) lysis buffer (0.15 M NH4Cl, 1 mM KHCO3, 0.1 mM Na2 EDTA) was added, followed by stirring for 1 minute and then washing the same with RPMI medium. After centrifugation, the cell suspension was reacted on mouse CD90.2 microbeads (Miltenyi Biotec, Cat No. 130-121-278) at 4° C. for 20 minutes. After complementation of the reaction, the cell suspension was centrifuged, washed with 10 ml of autoMACS® Running Buffer (Miltenyi Biotec, Cat No. 130-091-221), and then resuspended with 3 ml of autoMACS® Running Buffer. Then, CD90.2^+ T cells were obtained from the cell suspension using Auto MACS pro (Miltenyi Biotec) (positive selection). […]
The graft-versus-host disease severity index was evaluated at an interval of 3 to 4 days by visual observation in a severity index system that was classified into a total of 10 points with 0 to 2 points for each item of weight reduction, hair condition, posture, activity and skin change.

[4] = tested on: DSS-induced inflammatory bowel disease; assay: DSS-induced inflammatory bowel disease model: colon mRNA expression (real-time PCR); assay type: in vivo, C57BL/6 mice
Source text: On the 15th day of the experiment, the colon of the mouse was excised to prepare an mRNA sample. In order to extract mRNA, the colon tissue was ground with a homogenizer to acquire a homogeneous suspension. From the homogeneous suspension, mRNA was extracted by a phenol-chloroform sedimentation method using an easy-spin™ (DNA free) total RNA extraction kit (Intron biotechnology, Cat No. 17221). […] Herein, one (1) fold was set using the normal mouse colon as a control.
The real-time polymerase chain reaction was implemented under the conditions of 45 cycles at an annealing temperature of 58° C. and the following primer sequences were used.
The therapeutic effects of Compound 6 and Comparative Example 1 on inflammatory bowel disease were compared. Inflammatory bowel disease was induced in C57BL/6 mice in the same manner as in Example 4, and after oral administration of 10 mg/kg of Compound 6 and Comparative Example 1 to mice, the expression levels of IL-6 and S100a9 mRNA were confirmed in colon tissues.

[5] = 10 mg/kg oral daily, 15th day, compared to solvent control
[6] = 10 mg/kg oral, compared to Comparative Example 1

Chain of CYP2D6 (P10635 whole entry): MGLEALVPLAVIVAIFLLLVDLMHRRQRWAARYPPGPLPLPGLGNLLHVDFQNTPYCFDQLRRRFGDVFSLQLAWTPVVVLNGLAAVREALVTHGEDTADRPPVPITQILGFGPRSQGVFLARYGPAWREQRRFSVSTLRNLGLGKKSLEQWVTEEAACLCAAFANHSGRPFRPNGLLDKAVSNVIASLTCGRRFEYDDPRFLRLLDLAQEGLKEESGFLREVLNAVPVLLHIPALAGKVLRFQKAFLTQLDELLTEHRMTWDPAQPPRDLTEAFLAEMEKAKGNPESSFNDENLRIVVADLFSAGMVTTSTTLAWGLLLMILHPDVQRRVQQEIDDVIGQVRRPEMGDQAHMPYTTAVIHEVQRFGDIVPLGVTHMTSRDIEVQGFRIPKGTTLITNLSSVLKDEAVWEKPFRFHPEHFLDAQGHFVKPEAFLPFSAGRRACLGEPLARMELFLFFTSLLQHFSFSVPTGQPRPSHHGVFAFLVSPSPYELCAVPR

Which “IL-6 production of A549 by IL-1β stimulation” value [1] does the source give for O=C(Cc1c[nH]c2ccc(Cl)cc12)Nc1nc2ccc(N3CCOCC3)cc2s1 [Compound 6, 2-(5-chloro-1H-indol-3-yl)-N-(6-morpholinobenzo[d]thiazol-2-yl)acetamide] here?
Its value is “significantly reduced”.

What about the CYP2D6 activity [2] of the same compound?
The CYP2D6 activity was 101.2 % of Control Activity.

What about the “colon tissue inflammatory pathology index” value [3] of the same compound?
The value was “significantly decreased”.

What about the “severity index of graft-versus-host disease” value ([3]; total of 10 points, solvent control 8±1) of the same compound?
The value was 2.2±1.2.

What about the “Foxp3 expression level in colon lesions” value [4, 5] of the same compound?
The value was “significantly increased”.

And the “IL-1β expression level in colon lesions” value [4, 5]?
Its value is “significantly reduced”.

What about the “IL-6 expression level in colon lesions” value [4, 5] of the same compound?
The value was “significantly reduced”.

What about the “IL-10 expression level in colon lesions” value [4, 5] of the same compound?
The value was “significantly increased”.

What about the “IL-17A expression level in colon lesions” value [4, 5] of the same compound?
Its value is “significantly reduced”.

And the “Muc2 expression level in colon lesions” value [4, 5]?
The value was “significantly increased”.

And the “Reg3b expression level in colon lesions” value [4, 5]?
The value was “significantly increased”.

And the “S100a8 expression level in colon lesions” value [4, 5]?
The value was “significantly reduced”.

What about the “S100a9 expression level in colon lesions” value [4, 5] of the same compound?
The value was “significantly reduced”.

And the “TNF-α expression level in colon lesions” value [4, 5]?
Its value is “significantly reduced”.

What about the “IL-6 mRNA expression level in colon tissues” value [4, 6] of the same compound?
Its value is “significantly decreased”.

What about the “S100a9 mRNA expression level in colon tissues” value [4, 6] of the same compound?
The value was “significantly decreased”.
